In ChEMBL document CHEMBL4480415, “Design and synthesis of potent myostatin inhibitory cyclic peptides” (Bioorg Med Chem, 2019):
Where a SMILES comes first, the peptide text is derived from it. Bridges are numbered along the chain shown (N, C = ends). The star is where a group is joined. Acetyl(2-naphthyloxy) = O=C(COc1ccc2ccccc2c1)*

Experiment: Aqueous solubility of compound
Format: physicochemical
Details: buffer

solubility: Insoluble
Structure (SMILES): CC[C@H](C)[C@H](NC(=O)[C@H](CCCNC(=N)N)NC(=O)[C@H](CO)NC(=O)[C@H](Cc1ccc(O)cc1)NC(=O)[C@H](CCCNC(=N)N)NC(=O)[C@@H]1CSSC[C@H](NC(=O)COc2ccc3ccccc3c2)C(=O)N[C@@H](CCC(N)=O)C(=O)N[C@@H](CC(N)=O)C(=O)N1)C(=O)N[C@@H](CCC(=O)O)C(=O)N[C@@H](Cc1c[nH]c2ccccc12)C(=O)N[C@H](C(=O)N[C@@H](CCCCN)C(=O)N[C@H](C(=O)N[C@@H](CCC(N)=O)C(=O)N[C@H](C(=O)N[C@H](C(=O)N[C@@H](CO)C(=O)N[C@@H](CCCCN)C(=O)N[C@@H](CC(C)C)C(=O)N[C@@H](CCCNC(=N)N)C(=O)N[C@@H](CC(C)C)C(N)=O)[C@@H](C)CC)[C@@H](C)CC)[C@@H](C)CC)[C@@H](C)CC ({Acetyl(2-naphthyloxy)}-CQNCRYSRIEWIKIQIISKLRL-NH2; disulfide 1-4)
